{"source": "patent US10537611B2", "about": "“Methods of treating lung cancer” (Five Prime Therapeutics, Inc., priority 2011, dated 2020)", "key": {"DMS53 cells": {"test_system": "DMS53 cells", "experiment": "CellTiter-Glo cell number, DMS53", "format": "cell-based, human", "conditions": "15 μg/ml, 4 days, 10%, 1% or 0.1% FBS", "excerpt": "A panel of lung cancer cell lines displaying potential amplification of the FGFR1 gene was identified using CONAN (http://www.sanger.ac.uk/cgi-bin/genetics/CGP/conan/search.cgi) and Tumorscape (http://www.broadinstitute.org/tumorscape/pages/portalHomejsf). CONAN and Tumorscape represent public data mining tools to extract gene copy number information for predefined or user defined loci across the SNP6.0 dataset of cancer. Lung cancer cell lines DMS53, DMS114, NCI-H1581 and NCI-H520 were identified as having potential amplification of the FGFR1 gene (>4 copies/cell) and were selected for further analysis. Human small cell lung cancer (SCLC) cell lines DMS53 and DMS114 were purchased from ATCC (Manassas, Va.; Cat. No. CRL-2062; Cat. No. CRL-2066, respectfully). The cells were cultured in Waymouth's MB 752/1 medium+10% FBS+2 mM L-glutamine at 37° C. in a humidified atmosphere with 5% CO2. […]\nTo determine cell number the CellTiter-Glo® Luminescent Cell Viability Assay (Promega, Madison, Wis.) was employed. CellTiter-Glo® is a homogeneous method of determining the number of viable cells in culture based on quantitation of the ATP present, an indicator of metabolically active cells. […] Luminescence was then determined on an EnVision™ Multilabel Plate Reader (PerkinElmer, Boston, Mass.) with a 0.2 second integration time. Results were expressed as relative light units (RLU)/well."}, "Colo201 xenograft model": {"test_system": "Colo201 xenograft model", "experiment": "Colo201 xenograft tumor growth inhibition", "format": "in vivo, mouse", "conditions": "Colon Colo201; IP 15 mg/kg BIW; non-amplified; P ns", "experimental": "Percentage tumor growth inhibition by FGFR1-ECD.339-Fc was determined by area-under-the-curve (AUC) analysis of xenograft growth curves treated with FGFR1-ECD.339-Fc compared to albumin control. […] The difference in FGFR1-ECD.339-Fc-mediated xenograft inhibition between FGFR1 gene amplified and non-amplified lung cancer xenograft models was statistically significant (P=0.0333).\nAlso shown in Table 5 are the dosing schedule for FGFR1-ECD.339-Fc in a mouse xenograft model, the percent tumor growth inhibition (TGI (%)) and the statistical significance of the tumor growth inhibition (P Value), as well as whether the FGFR1 gene is amplified in the cell line.\nAn exemplary xenograft experiment is as follows. For Caki-1 and MSTO-211H, five million cells were implanted subcutaneously over the right flank of SCID mice (N=10 per group). […] Representative tumor growth curves are shown for a renal cancer, Caki-1, (A), and mesothelioma, MSTO-211H, (B) xenograft cancer model. […] In the MSTO-211H mesothelioma model, FGFR1-ECD.339-Fc administration reduced tumor growth (FIG. 16b) by 64% (P<0.0001)."}, "DMS114 xenograft model": {"test_system": "DMS114 xenograft model", "experiment": "DMS114 SCLC xenograft tumor growth inhibition", "format": "in vivo, mouse", "conditions": "Lung DMS114, IP 15 mg/kg BIW, FGFR1 amplified, P < 0.001", "experimental": "FGFR1-ECD.339-Fc was formulated in PBS at 3 mg/ml and administered intraperitoneally (i.p.) at 15 mg/kg (300 μg/100 μl/mouse) twice a week for four weeks. Human albumin was purchased from Grifols USA (Los Angeles, Calif.; Cat. No. NDC 61953-0002-1), diluted to a working stock (3 mg/ml) with 0.9% sodium chloride, and was used as negative control at 300 μg/100 μl/mouse (15 mg/kg) administered twice a week for four weeks.\nSix week old female SCID mice were purchased from Charles River Laboratories (Wilmington, Mass.) and were acclimated for 1 week before the start of the study. Human small cell lung cancer (SCLC) cell line DMS114 was used as the tumor model and was purchased from ATCC (Manassas, Va.; Cat. No. CRL-2066). The cells were cultured for three passages in Waymouth's MB 752/1 medium+10% FBS+2 mM L-glutamine at 37° C. in a humidified atmosphere with 5% CO2. […]\nTumor sizes were measured in each mouse on days 3, 10, 16, 19, 24, 27, and 31 following the day of tumor cell inoculation. The length and width of each tumor was measured using calipers and the tumor size calculated according to the formula: Tumor size (mm^3)=[…] Mice were euthanized as a “cancer death” when the subcutaneous tumor volumes exceeded 2000 mm^3 or when the tumors became excessively necrotic."}}, "data": [{"substance": "FGFR1-ECD.339-Fc: human FGFR1 extracellular domain ending at amino acid 339 fused to an Fc; SEQ ID NO: 6 (mature form), SEQ ID NO: 5 with signal peptide", "values": [{"measurement": "cell number (CellTiter-Glo)", "setting": "DMS53 cells", "value": "reduced"}, {"measurement": "TGI (%)", "setting": "Colo201 xenograft model", "value": 0, "unit": "%"}, {"measurement": "TGI (%)", "setting": "DMS114 xenograft model", "value": 64, "unit": "%"}]}]}
